Test results reported in PMC5458078, “Global mapping of CARM1 substrates defines enzyme specificity and substrate recognition” (Nature Communications, 2017).
Read-outs that look alike come from different tables or passages of the source.

Legend:
[1] = system: MCF7 cells; experiment: Quantitative nanoLC-MS/MS (TMT) of ADMA-containing peptides, CARM1 KO vs parental; format: cell-based, human; design: Fold change KO/WT: scale not given here
[2] = system: MCF7 CARM1 KO cells; experiment: Quantitative MS of ADMA-containing peptides in MCF7 CARM1 KO cells expressing CARM1 28-608 or CARM1 140-608, and in CARM1 KO; format: cell-based, human
[3] = ADMA-containing peptide, CARM1 knockout (KO) vs wild type (WT) MCF7 cells, 6-plex TMT experiment #1, three biological replicates each, sheet "MCF7"
[4] = difference of log2 means, CARM1 140-608 vs WT
[5] = difference of log2 means, KO vs WT
[6] = ADMA-containing peptide, MCF7, CARM1 knockout (KO1-3) vs wild type (WT1-3), TMT 6-plex experiment #1
[7] = log2 scale ratio, mean of n = 3
[8] = MCF7, CARM1 knockout vs wild type, n = 3 each
[9] = ratio on log2 scale, mean of 3 replicates
[10] = mean, CARM1 140-608 versus WT (log2 scale)
[11] = mean, CARM1 KO versus WT (log2 scale)
[12] = MCF7 CARM1 knockout vs wild type, 3 biological replicates each, values are on log2 scale
[13] = CARM1 140-608 versus WT, mean of three replicates (log2)
[14] = KO versus WT, mean of three replicates (log2)
[15] = CARM1 KO vs wild type MCF7 cells, 3 biological replicates each
[16] = CARM1 140-608 versus WT, difference of mean log2 values
[17] = CARM1 KO versus WT, difference of mean log2 values
[18] = MCF7, CARM1 KO vs WT, three biological replicates each
[19] = CARM1 140-608 vs WT, mean of 3 replicates, log2
[20] = KO vs WT, mean of 3 replicates, log2
[21] = MCF7, CARM1 KO (KO1-KO3) vs wild type (WT1-WT3)
[22] = CARM1 140-608 vs WT, mean of 3 replicates (log2 scale)
[23] = KO vs WT, mean of 3 replicates (log2 scale)

## NSCPGPLDSSAFLSSDFLLPEDPKPrLPPPPVPPPLLHYPPPAK
[1]; [3]
  Fold change KO/WT: -3.136
[2]; [4]
  CARM1 140-608/WT: -1.41
[2]; [5]
  KO/WT: -3.136

## VQTHLENPTrYHLQQAR
[1]; [6]
  Fold change KO/WT: -1.173
[2]; [7]
  CARM1 140-608/WT: -1.396
  KO/WT: -1.173

## SAPrLNTTNAWGAAPPSLGSQPLYR
[1]; [8]
  Fold change KO/WT: -1.593
[2]; [9]
  CARM1 140-608/WT: -0.6132
  KO/WT: -1.593

## QPVPFGLVrFGVAPDHPEVK
[1]; [8]
  Fold change KO/WT: -1.677
[2]; [10]
  CARM1 140-608/WT: -1.417
[2]; [11]
  KO/WT: -1.677

## GPPPGSANPPrLVSSYrLK
[1]; [12]
  Fold change KO/WT: -2.444
[2]; [4]
  CARM1 140-608/WT: -0.6365
[2]; [5]
  KO/WT: -1.758

## QLrMQLQQrLQGQQFLNQSrQALELK
[1]; [3]
  Fold change KO/WT: -3.961
[2]; [13]
  CARM1 140-608/WT: -3.52
[2]; [14]
  KO/WT: -6.321

## STNPELPPrLGPVPSGLSQK
[1]; [8]
  Fold change KO/WT: -2.804
[2]; [9]
  CARM1 140-608/WT: -2.1
  KO/WT: -2.804

## APDEPQQAQVPHVWGWEVAGAPALrLQK
[1]; [3]
  Fold change KO/WT: -2.912
[2]; [4]
  CARM1 140-608/WT: -2.552
[2]; [5]
  KO/WT: -3.114

## DCGTLPNrFVITPR
[1]; [3]
  Fold change KO/WT: -0.2619
[2]; [13]
  CARM1 140-608/WT: -0.5335
[2]; [14]
  KO/WT: -0.73

## DPFSQALSrCQLQQAAALNAQHK
[1]; [8]
  Fold change KO/WT: -2.1
[2]; [9]
  CARM1 140-608/WT: -1.585
  KO/WT: -2.1

## YSAFQLAPFQDHGLPAVSVDSPVrYK
[1]; [15]
  Fold change KO/WT: -2.156
[2]; [16]
  CARM1 140-608/WT: -1.433
[2]; [17]
  KO/WT: -2.156

## GGrGrGGSGGGGGGGGGGYNR
[1]; [8]
  Fold change KO/WT: -0.05268
[2]; [10]
  CARM1 140-608/WT: 0.1837
[2]; [11]
  KO/WT: 0.3356

## SGFAATSQPGPrLPFIQHSQNPrFYHK
[1]; [8]
  Fold change KO/WT: -3.247
[2]; [10]
  CARM1 140-608/WT: -0.6332
[2]; [11]
  KO/WT: -3.722

## LGHDAYrLGQDPYR
[1]; [6]
  Fold change KO/WT: -1.081
[2]
  CARM1 140-608/WT: -1.007
  KO/WT: -1.081

## NrGAGGFGGGGGTR
[1]; [18]
  Fold change KO/WT: -0.03405
[2]; [19]
  CARM1 140-608/WT: 0.06902
[2]; [20]
  KO/WT: 0.4755

## LEPPLTPrCPLDFAPQTLSFPYAR
[1]; [18]
  Fold change KO/WT: -5.801
[2]; [19]
  CARM1 140-608/WT: -2.973
[2]; [20]
  KO/WT: -5.801

## SPFLGSArPrLR
[1]; [6]
  Fold change KO/WT: -3.721
[2]
  CARM1 140-608/WT: -0.6148
  KO/WT: -3.721

## RPAQSVNrGGMTR
[1]; [18]
  Fold change KO/WT: 0.2083
[2]; [19]
  CARM1 140-608/WT: 0.0581
[2]; [20]
  KO/WT: 0.3659

## NDTKDDLGNLNVPDSSLPAENEATGPGFVPPPLAPIrGPLFPVDArGPFLR
[1]; [8]
  Fold change KO/WT: -2.279
[2]; [9]
  CARM1 140-608/WT: 0.1654
  KO/WT: -2.602

## MGTPVPRPPQDMGQIGVrTPLGPrVAAPVGPVGPTPTVLPMGAPVPRPrGPPPPPGDENR
[1]; [21]
  Fold change KO/WT: -3.388
[2]; [22]
  CARM1 140-608/WT: -2.483
[2]; [23]
  KO/WT: -3.388

## GALSISAPLGDFrHTLHVGR
[1]; [18]
  Fold change KO/WT: -1.149
[2]; [9]
  CARM1 140-608/WT: -1.004
  KO/WT: -1.149

## EPLVATNLPGrGQLQK
[1]; [6]
  Fold change KO/WT: -0.7768
[2]; [7]
  CARM1 140-608/WT: -0.7114
  KO/WT: -0.7768

## APrSLIPPIPVSPPILAPrLSSGALK
[1]; [21]
  Fold change KO/WT: -1.927
[2]; [22]
  CARM1 140-608/WT: -0.773
[2]; [23]
  KO/WT: -1.927

## CAGFLEPTWLAAPPrLArPPrFYEAGEELTGPGAVAAAR
[1]; [8]
  Fold change KO/WT: -3.713
[2]; [9]
  CARM1 140-608/WT: -2.314
  KO/WT: -3.713

## EVYQQQQYGSGGrGNR
[1]; [12]
  Fold change KO/WT: 0.5359
[2]; [10]
  CARM1 140-608/WT: -0.0375
[2]; [11]
  KO/WT: 0.5359

## MGTPVPRPPQDMGQIGVrTPLGPrVAAPVGPVGPTPTVLPMGAPVPrPR
[1]; [21]
  Fold change KO/WT: -2.803
[2]; [22]
  CARM1 140-608/WT: -2.519
[2]; [23]
  KO/WT: -3.3286

## GTVVTPVQVPLLPVPSQPrPAVGPQrFPGPPEFPQHTPGPVPNSFSQPPrLPLQDQWrAPPPPQDR
[1]; [21]
  Fold change KO/WT: -3.321
[2]; [22]
  CARM1 140-608/WT: -1.653
[2]; [23]
  KO/WT: -3.712

## GLGPGGTPFPGQGPPQrPrFYPVSEDPHR
[1]; [12]
  Fold change KO/WT: -1.165
[2]; [4]
  CARM1 140-608/WT: -1.244
[2]; [5]
  KO/WT: -1.165

## FArVPLALHPVVGQPFLK
[1]; [18]
  Fold change KO/WT: -2.764
[2]; [9]
  CARM1 140-608/WT: -2.105
  KO/WT: -2.764

## FGDMSYSIrHSISMPAMR
[1]; [6]
  Fold change KO/WT: -3.258
[2]; [7]
  CARM1 140-608/WT: -2.806
  KO/WT: -3.258

## IAQPVrSFLQPPKPLSSLSTLR
[1]; [21]
  Fold change KO/WT: -2.977
[2]; [22]
  CARM1 140-608/WT: -1.679
[2]; [23]
  KO/WT: -2.977

## WrYNKPLPPTPDLPQPHLPPISAPGSSR
[1]; [18]
  Fold change KO/WT: -1.565
[2]; [19]
  CARM1 140-608/WT: -1.118
[2]; [20]
  KO/WT: -1.565

## QAAPQMLQQQPPrLISVQTMQR
[1]; [15]
  Fold change KO/WT: -1.292
[2]; [16]
  CARM1 140-608/WT: -0.6208
[2]; [17]
  KO/WT: -1.292

## GGGSGNFMGrGGNFGGGGGNFGrGGNFGGrGGYGGGGGGSR
[1]; [8]
  Fold change KO/WT: -0.1359
[2]; [10]
  CARM1 140-608/WT: -0.1884
[2]; [11]
  KO/WT: -0.008363
